Experimental data from publication PMC11054906 (Pharmaceuticals, 2024).

Columns and labels:
[1] = Population PK analysis (NLME, Monolix) of empagliflozin plasma concentrations from two phase 1 crossover studies; assay type: in vivo, healthy Korean subjects
Excerpt: Data from two clinical studies (NCT03849495 and NCT03848637) were used in this study to develop the PK model and conduct population PK analysis. Both of the studies were randomized, open-label, two-period, two-sequence, crossover studies comparing the PK characteristics, safety and tolerability profiles of the two study drugs in healthy Korean subjects. Healthy subjects aged between 19 and 50 years with BMIs of 18–27 kg/m^2 were recruited for both studies. Subjects without any clinically significant medical history, and without any clinically significant findings in physical examinations, vital signs, 12-lead electrocardiograms (ECG), and clinical laboratory test results were eligible for the studies. Subjects who could not abstain from alcohol, smoking, or drug use throughout the study were excluded. To ensure safety, subjects with any allergies to the study medications were also excluded. Adverse drug reactions were assessed throughout the study period, and the monitoring of physical examinations, vital signs, 12-lead ECG, and laboratory tests was also performed.
Demographic data, clinical laboratory data, and time–plasma concentration data were pooled to develop a population PK model.
Blood samples were collected before drug administration (0 h) and 0.33 h, 0.67 h, 1 h, 1.5 h, 2 h, 2.5 h, 3 h, 4 h, 6 h, 8 h, 10 h, 12 h, 24 h, 34 h, and 48 h after study’s drug administration in the first study. In the second study, blood samples were also collected at 3.5 h and 5 h. Thus, a total of 16 and 18 blood samples were collected from each healthy volunteer in the two clinical studies, respectively. […] In the second study, the plasma concentrations of empagliflozin were quantified by using liquid chromatography–mass spectrometry (LC–MS) equipped with API 4000 (SCIEX; multiple reaction monitoring, electrospray ionization, and positive SCIEX mode). All experiments adhered to the standards of good laboratory practice as described previously. The calibration ranges in these two studies were 2–1500 ng/mL and 0.5–150 ng/mL, respectively.
The population PK analysis was conducted using a nonlinear mixed effect (NLME) modeling method with Monolix® Suite 2021R1 (Lixoft, Antony, France). The stochastic approximation expectation maximization (SAEM) algorithm was implemented, and model qualification was performed using a likelihood ratio test, Bayesian information criterion (BIC), goodness-of-fit (GOF) diagnostic plots, and visual predictive checks (VPCs). Various compartment models with lag time, transit compartment, and Weibull absorption were established to construct the base PK model.
After the development of the base model, interindividual variability (IIV), interoccasion variability (IOV), and residual errors were added to the model. Because of the crossover study design, the random variation in the population PK parameters was described by both the IIV and IOV, with all the individual parameters considered to be log-normally distributed. IIV and IOV were sequentially implemented, and the parameters were subsequently removed or fixed at low values when converging to zero. The exponential random effects terms for the IIV and IOV are shown in Formulas (2) and (3), respectively. (2) Pi=θk×e^ηi where Pi represents the parameter value k from individual i and θk describes the population value of parameter k. ηi denotes the difference between Pi and θk. (3) Pi,occ=θk×e^ηi+Kkiq where Pi,occ is the individual parameter value k from individual i at occasion q that differs from the typical individual value by an additional random effect Kkiq. An occasion was characterized as the time period from the start of an infusion until the start of the next administration. ηki and Kkiq were assumed to be symmetrically distributed with a zero mean and a variance of σ^2 and γ^2, respectively. […]

[2] = parameters: method as in PMID 23940010, PMID 27312794, PMID 29251772, PMID 24964723; details: cited from earlier work
[3] = 1000 bootstrap resampling, interindividual variability
[4] = 1000 bootstrap resampling, interoccasion variability
[5] = final model, oral single dose, both formulations pooled

- CL, median of bootstrap (95% CI) ([1]; 1000 bootstrap resampling): 8.21 (7.945–8.465) L/h
- Ka, median of bootstrap (95% CI) ([1]; 1000 bootstrap resampling): 0.25 (0.23–0.275) h^−1
- Ktr, median of bootstrap (95% CI) ([1]; 1000 bootstrap resampling): 8.94 (6.766–11.728) h^−1
- Mtt, median of bootstrap (95% CI) ([1]; 1000 bootstrap resampling): 0.64 (0.526–0.725) h
- Q, median of bootstrap (95% CI) ([1]; 1000 bootstrap resampling): 4.66 (3.979–5.456) L/h
- V1, median of bootstrap (95% CI) ([1]; 1000 bootstrap resampling): 0.64 (0–1.889) L
- V2, median of bootstrap (95% CI) ([1]; 1000 bootstrap resampling): 43.93 (41.255–47.171) L
- b (residual variability), median of bootstrap (95% CI) ([1]; 1000 bootstrap resampling): 0.16 (0.141–0.175)
- βCL_logWT, median of bootstrap (95% CI) ([1]; 1000 bootstrap resampling): 0.64 (0.366–0.926)
- βV2_logWT, median of bootstrap (95% CI) ([1]; 1000 bootstrap resampling): 0.54 (0.221–0.851)
- ωCL, median of bootstrap (95% CI) [1, 3]: 0.12 (0.101–0.141)
- ωKa, median of bootstrap (95% CI) [1, 3]: 0.16 (0.116–0.208)
- ωV2, median of bootstrap (95% CI) [1, 3]: 0.13 (0.1–0.172)
- γCL, median of bootstrap (95% CI) [1, 4]: 0.04 (0.025–0.06)
- γKa, median of bootstrap (95% CI) [1, 4]: 0.04 (0.023–0.062)
- γKtr, median of bootstrap (95% CI) [1, 4]: 1.11 (0.858–1.334)
- γMtt, median of bootstrap (95% CI) [1, 4]: 0.44 (0.359–0.528)
- b, residual variability (proportional error) ([1]; final model): 0.16
- Ktr (transit rate constant), population value ([1]; final model, oral single dose 25 mg or 5 mg (with metformin 1000 mg), both formulations pooled): 9.19 h⁻¹
- CL (clearance), population value [1, 5]: 8.21 L/h
- Ka (absorption rate constant), population value [1, 5]: 0.26 h⁻¹
- Mtt (mean transit time for absorption), population value [1, 5]: 0.63 h
- V1, population value [1, 5]: 0.6 L
- Mtt (mean transit time) ([1]; final two-compartment transit model): 37.8 min
- number of transit compartments ([1]; from Formula (1), Mtt and Ktr of the final model): 4.79
- γCL, interoccasion variability ([1]; presented as SD (CV)): 4.3%
- γKa, interoccasion variability ([1]; presented as SD (CV)): 0.029 (2.90) %
- γKtr, interoccasion variability ([1]; presented as SD (CV)): 1.17 (171.20) %
- γMtt, interoccasion variability ([1]; presented as SD (CV)): 0.42 (43.92) %
- ωCL, interindividual variability ([1]; presented as SD (CV)): 0.12 (12.04) %
- ωV2, interindividual variability ([1]; presented as SD (CV)): 0.13 (13.06) %
SMILES: OC[C@H]1O[C@@H](c2ccc(Cl)c(Cc3ccc(O[C@H]4CCOC4)cc3)c2)[C@H](O)[C@@H](O)[C@@H]1O [empagliflozin, Empagliflozin]
- βV2_logWT (effect of log-transformed body weight on V2) ([1]; final model, covariate coefficient): 0.57
- estimated Mtt ([2]; three transit compartment model): 30 min
- lag time (fixed) of lagged first-order oral absorption ([2]; two-compartment model): 0.5 h
